From patent US7615210B2, “Treatment of endometriosis” (Medical Research Council, priority 2003, dated 2009)
Several values for one entry are separate records, joined by “and”; a condition that tells them apart may be missing. Equal entries are not always repeated.

Test system: PK1 expression in endometrial tissue
Assay: PK1 expression in endometrial tissue incubated with progesterone, Taqman quantitative RT-PCR
Assay type: cell-based, human
Conditions: endometrial tissue (n=5), 1 μM progesterone, 24 hours, control ethanol; mean ± SEM; p<0.05
Experimental: RNA was extracted from endometrial biopsies obtained from across the menstrual cycle (n=35) using Tri Reagent (Sigma, Poole, UK) following the Manufacturer's instructions. RNA samples were quantified and were reverse transcribed using 5.5 mmol 1^−1 MgCl2, 0.5 mmol 1^−1 of each deoxynucleotide triphosphate (dNTP), 2.5 μmol 1^−1 random hexamers, ribonuclease inhibitor (0.4 U μl^−1) and 1.25 U μl^−1 Multiscribe reverse transcriptase (all from Applied Biosystems, Warrington, UK). RNA (400 ng) was added to each reverse transcription reaction and samples were incubated for 90 minutes at 25° C., 45 minutes at 48° C. and 5 minutes at 95° C. The reaction mix for the polymerase chain reaction (PCR) consisted of 1× mastermix, ribosomal 18S forward and reverse primers, Ribosomal 18S probe (50 nmol 1^−1; all from Applied Biosystems, Warrington, UK), forward and reverse primers for PK1, PK2, PKR1 and PKR2 (300 nmol 1^−1) and their probes (200 nmol 1^−1) (all from Biosource UK, Nivelles, Belgium). The reaction mix (48 μl) was aliquoted into tubes and 2 μl cDNA was added. Duplicate 24 μl samples plus positive and negative controls were placed in a PCR plate and wells were sealed with optical caps. […] Data were analysed and processed using Sequence Detector version 1.6.3 (Applied Biosystems, Warrington, UK) according to manufacturer's instructions. […]

Compound: CC(=O)[C@H]1CC[C@H]2[C@@H]3CCC4=CC(=O)CC[C@]4(C)[C@H]3CC[C@]12C [progesterone]
- fold increase in PK1 expression compared with controls: 2.91 fold and 2.91(±0.75) fold
